Values after ≈ are worked out from the molar mass of the structure shown.
Legend:
[1] = system: MDA-MB-231 human breast cancer cells; assay: trypan blue dye exclusion assay at the end of wound closure experiments; format: cell-based; conditions: lowest concentration tested with statistically significant cell death by the end of wound closure experiments
Description: Compounds were first screened at 50 μm and evaluated for their antimigratory activity and cytotoxicity. This was accomplished by scoring wounds as opened or closed as a function of time following wounding to determine the time to closure. Cell viability was determined by the trypan blue dye exclusion assay conducted at the end of each experiment, with the ratio of dye-non-excluding (dead) to dye-excluding (live) cells compared with the control, described in greater detail in Example 7.
Minimum lethal concentration (MLC) represents the lowest concentration tested at which there was statistically significant cell death, measured using the trypan blue dye exclusion assay, by the end of wound closure experiments. The minimum lethal concentration (MLC) for compound 94 under the conditions of the cell invasion assay was 50 μm. In the cell invasion assay, cells were at a lower density than in the wound closure assay, and compounds were added at the same time as the cells, rather than after attachment and growth.

[2] = system: MDA-MB-231 human breast cancer cells; assay: wound closure assay (cell migration); format: cell-based; conditions: for effect on wound closure or cytotoxicity in the screen: 24 hours after wounding
Description: In the wound closure assay, MDA-MB-231 cells (American Type Culture Collection number: HTB-26) were cultured in 75 cm^2 tissue culture flasks with growth medium (DMEM containing 10% fetal bovine serum) at 37° C. under 5% CO2 in a humidified tissue culture incubator. The cells were grown to 80% confluence and then treated with trypsin, collected, and replated in 96-well tissue culture plates for initial screening. Once confluent, the cell cultures were treated with compounds at various concentrations or with DMSO carrier solvent alone with fresh growth medium. In all cases, the final DMSO concentration was 0.05%. After 30 minutes, the cell cultures were wounded with a sterile micropipette tip, and the wound closure experiments were performed essentially as described previously.
Cell monolayers in 24-well tissue culture plates were treated with different concentrations of each compound 30 minutes before wounding and then wounded, as described above.
Digital images of the wounds were captured immediately after wounding and at 3 h, 6 h, 9 h, 12 h, and 24 hours post-wounding. The open wound areas, as a function of time after wounding, were determined with NIH Image J software to establish the mean percent wound closure over time for each treatment and parallel controls, as previously described. The mean percent wound closure values at 9 hours post-wounding for all concentrations up to the maximal subtoxic concentration were subjected to nonlinear regression to calculate IC50 values and 95% confidence intervals for inhibition of wound closure.
The Minimum Inhibitory Concentration (MIC) column of Table 1 represents the lowest concentration tested at which there was statistically significant inhibitory activity in the wound closure assay as determined by unpaired, two-tailed Student's t-tests (P<0.05).
Half-maximal inhibitory concentration (IC50) values shown in Table 1 were calculated for inhibition of wound closure at 9 hours post-wounding from concentration—response profiles for a range of subtoxic concentrations (n=7−9 wounds from three independent experiments).

MDA-MB-231 cells [3] = assay: tetrazolium salt-based cell proliferation and viability assay (CCK-8); set-up: species or system human; conditions: 48 hours
Description: Compounds 90, 92 and 94 were also evaluated in a tetrazolium salt-based cell proliferation and viability assay.
The cell proliferation and cell viability assay was conducted according to the manufacturer's instructions (CCK-8; Dojindo Molecular Technologies). MDA-MB-231 cells were plated in 96-well tissue culture plates ([…] per well of a 4×10^4 cells per mL suspension in growth medium) and incubated for 24 hours at 37° C. under 5% CO2. The cells were then treated with the tested compounds at various concentrations or with DMSO alone. In all cases, the final DMSO concentration was 0.05%. At the same time, other cells from parallel plates were analyzed using the CCK-8 assay to establish the cell density at the start of the experiment. After 48 hours of incubation, the cell numbers for the experimental samples were determined and compared with the initial cell numbers.

MDA-MB-231 cells [4] = assay: cell invasion assay through Matrigel in transwell chambers; format: cell-based, human; conditions: subtoxic concentrations, 24 hours
Description: Cell migration is a necessary condition for the metastasis of solid tumors. A major determinant of the metastatic potential of a cancer cell is its ability to invade through extracellular matrix barriers. Therefore, compounds 90, 92 and 94 were tested for their activities using a cell invasion assay.
Compounds 90, 92, and 94 were analyzed for their ability to inhibit the invasion of cells through Matrigel in a cell invasion assay. The assay was performed in transwell chambers according to the manufacturer's instructions (BD Biosciences). The polycarbonate membranes (8 μm pore size) of the upper chambers were coated with Matrigel (25 μg). Growth medium containing the tested compound or DMSO alone was added to the lower chambers ([…] per well in 24-well BD Falcon TC companion plates). […] After removing noninvaded cells from the upper surface of the membrane with a cotton swab, the invaded cells on the lower surface were fixed with MeOH, stained with crystal violet solution, rinsed with water, air-dried, and then counted by using an inverted microscope. In parallel experiments, cell viability, determined using the trypan blue dye exclusion assay at various concentrations of the tested compounds, was evaluated under the conditions of the cell invasion assay.

cell migration = conditions: natural product comparator; read-out: IC50 (inhibition of cell migration); cited from earlier work

Row | SMILES | MLC (minimum lethal concentration) [1] [µM] | effect on wound closure or cytotoxicity in the screen ([2]; 2 μm) | effect on wound closure or cytotoxicity in the screen ([2]; 10 μm) | effect on wound closure or cytotoxicity in the screen ([2]; 50 μm) | IC50 ([2]; Homo sapiens, MDA-MB-231, 9 hours post-wounding, subtoxic concentrations, n=7-9 wounds from three independent experiments, read-out: IC50 (inhibition of wound closure)) [µM] | MIC (minimum inhibitory concentration, wound closure) ([2]; lowest concentration tested with statistically significant inhibitory activity (P<0.05)) [µM] | antimigratory activity in the wound closure assay ([2]; subtoxic concentrations) | inhibition of cell growth (MDA-MB-231 cells [3]; concentrations that inhibit migration and invasion) | cytotoxicity (MDA-MB-231 cells [3]; higher concentrations) | activity against cell invasion (MDA-MB-231 cells [4]) | IC50 (cell migration) [µM]
1 | CCOc1cc2c(c3c1C(c1ccccc1)N(S(=O)(=O)c1ccc(C)cc1)C3)C(=O)C=CC2=O (centres unmarked) [Compound 92] | 50 (≈ 23.7 µg/mL) | inactive | inhibit wound closure or were cytotoxic | inhibit wound closure or were cytotoxic | 14.8 | 5 (≈ 2.37 µg/mL) | exhibited subtoxic antimigratory activity | did not inhibit cell growth | become cytotoxic at higher concentrations over a very narrow range | inhibit cell migration and invasion at subtoxic concentrations | 
2 | CO[C@H]1/C=C/CC/C=C/C(=O)O[C@H]([C@H](C)C(=O)CCCC2CC(=O)NC(=O)C2)/C(C)=C\[C@@H](C)[C@@H]1O [migrastatin] |  |  |  |  |  |  |  |  |  |  | 29
